Here are results for 13 compounds from patent US9062041B2 (Bayer Intellectual Property GmbH, priority 2011, dated 2015).

What all share (assay type): cell-based
For test [1], the target named is EP2 subtype of the human PGE2 receptor (Homo sapiens, UniProt P43116). Put plainly: cAMP antagonism test on the human EP2 receptor (HTRF cAMP detection). Particulars: hEP2 receptor, read-out: Antagonism hEP2 IC50. From the text: 1. Detection of Antagonism to the Human Prostaglandin E2 (Subtype EP2) Receptor Signal
EP2 subtype of the human PGE2 receptor, sequence (P43116 whole entry): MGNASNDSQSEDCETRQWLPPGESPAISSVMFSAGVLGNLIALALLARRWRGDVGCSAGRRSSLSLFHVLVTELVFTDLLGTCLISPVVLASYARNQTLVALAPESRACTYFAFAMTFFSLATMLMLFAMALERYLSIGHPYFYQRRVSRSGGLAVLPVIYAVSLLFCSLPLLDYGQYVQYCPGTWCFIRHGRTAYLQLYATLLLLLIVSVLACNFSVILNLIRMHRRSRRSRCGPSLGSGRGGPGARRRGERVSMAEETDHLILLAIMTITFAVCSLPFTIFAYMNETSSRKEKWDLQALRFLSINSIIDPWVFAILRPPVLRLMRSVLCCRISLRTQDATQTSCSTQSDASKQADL
The binding of PGE2 to the EP2 subtype of the human PGE2 receptor induces the activation of membrane-located adenylate cyclases and leads to the formation of cAMP. In the presence of the phosphodiesterase inhibitor IBMX, the cAMP accumulated owing to this stimulation and released by cell lysis is used in a competitive detection method. In this test, the cAMP present in the lysate competes with a fluorescence-labelled cAMP (cAMP-d2) for binding to an Eu cryptate-labelled anti-cAMP antibody.
(§1) In the absence of cellular cAMP, a maximal signal is produced, which is attributable to the binding of this cAMP-d2 molecule to the antibody. After excitation of the […] at 337 nm, there is a fluorescence resonance energy transfer (FRET) to the Eu cryptate molecules of the anti-cAMP antibody (labelled therewith), followed by a long-lasting emission signal at 665 nm (and at […]). Both signals are measured in a suitable measurement instrument with a time delay, i.e. after decay of the background fluorescence. Any increase in the low FRET signal caused by prostaglandin E2 administration (measured as well ratio change=emission665 nm/emission620 nm*10000) indicates the action of antagonists.
1.2.1. Test for Antagonism (Data Per Well of a 384-Well Plate):
To a test plate with the substance solutions already added (0.05 μl; 100% DMSO, concentration range from 0.8 nM-16.5 μM) were added 4 μl of a cAMP-d2/cell suspension (625000 cells/ml). After a 20-minute preincubation at room temperature (RT), 2 μl of a 3×PGE2 solution (1.5 nM, in PBS-IBMX) were added and incubated in the presence of the agonist for a further 60 mins at RT (volume: ˜6 μl). Next the reaction was stopped by addition of 2 μl of lysis buffer and incubated for a further 20 mins at RT before the actual measurement (volume: ˜8 μl).
A general note: TR-FRET usually uses a lanthanide donor and a delayed reading to cut background.

Test [2] addresses EP4 subtype of the human PGE2 receptor (Homo sapiens, UniProt P35408). The test can be described thus: cAMP antagonism test on the human EP4 receptor (HTRF cAMP detection). Particulars: selectivity towards hEP4, IC50 measured by cAMP antagonism test.
Description: 2. Detection of Antagonism to the Human Prostaglandin E2 (Subtype EP4) Receptor Signal
The binding of PGE2 to the EP4 subtype of the human PGE2 receptor induces the activation of membrane-located adenylate cyclases and leads to the formation of cAMP. In the presence of the phosphodiesterase inhibitor IBMX, the cAMP accumulated owing to this stimulation and released by cell lysis is used in a competitive detection method. In this test, the cAMP present in the lysate competes with a fluorescence-labelled cAMP (cAMP-d2) for binding to an Eu cryptate-labelled anti-cAMP antibody.
as §1, with “cAMP” for “cAMP,”
2.2.1. Test for Antagonism (Data Per Well of a 384-Well Plate):
To a test plate with the substance solutions already added (0.05 μl; 100% DMSO, concentration range from 0.8 nM-16.5 μM) were added 4 μl of a cAMP-d2/cell suspension (312500 cells/ml). After a 20-minute preincubation at room temperature (RT), 2 μl of a 3×PGE2 solution (0.3 nM, in PBS-IBMX) were added and incubated in the presence of the agonist for a further 60 mins at RT (volume: ˜6 μl). Next the reaction was stopped by addition of 2 μl of lysis buffer and incubated for a further 20 mins at RT before the actual measurement (volume: ˜8 μl).

The target of another test is T1, human PGD receptor (Homo sapiens, UniProt Q13258).
T1 sequence (Q13258 1-359): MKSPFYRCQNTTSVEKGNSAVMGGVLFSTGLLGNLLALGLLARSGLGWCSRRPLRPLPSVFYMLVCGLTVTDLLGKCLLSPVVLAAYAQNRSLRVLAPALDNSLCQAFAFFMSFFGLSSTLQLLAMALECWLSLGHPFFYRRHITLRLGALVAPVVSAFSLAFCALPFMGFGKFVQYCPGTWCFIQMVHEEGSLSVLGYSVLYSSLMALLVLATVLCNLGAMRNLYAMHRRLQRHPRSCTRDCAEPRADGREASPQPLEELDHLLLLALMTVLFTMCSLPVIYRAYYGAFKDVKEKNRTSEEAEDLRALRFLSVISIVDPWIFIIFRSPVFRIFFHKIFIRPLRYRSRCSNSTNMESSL
The test can be described thus: cAMP antagonism test on the human prostaglandin D receptor (HTRF cAMP detection). The following applies: selectivity towards hDP, IC50 measured by cAMP antagonism test.
Description: 3. Detection of Antagonism to the Human Prostaglandin D Receptor Signal
The binding of prostaglandin D2 to the human PGD receptor induces the activation of membrane-located adenylate cyclases and leads to the formation of cAMP. In the presence of the phosphodiesterase inhibitor IBMX, the cAMP accumulated owing to this stimulation and released by cell lysis is used in a competitive detection method. In this test, the cAMP present in the lysate competes with a fluorescence-labelled cAMP (cAMP-d2) for binding to an Eu cryptate-labelled anti-cAMP antibody.
as §1
3.2.1. Test for Antagonism (Data Per Well of a 384-Well Plate):
To a test plate with the substance solutions already added (0.05 μl; 100% DMSO, concentration range from 0.8 nM-16.5 μM) were added 4 μl of a cAMP-d2/cell suspension (625000 cells/ml). After a 20-minute preincubation at room temperature (RT), 2 μl of a 3×PGD2 solution (6 nM, in PBS-IBMX) were added and incubated in the presence of the agonist for a further 30 mins at RT (volume: ˜6 μl). Next the reaction was stopped by addition of 2 μl of lysis buffer and incubated for a further 20 mins at RT before the actual measurement (volume: ˜8 μl).

EP4 subtype of the human PGE2 receptor, sequence (P35408 whole entry): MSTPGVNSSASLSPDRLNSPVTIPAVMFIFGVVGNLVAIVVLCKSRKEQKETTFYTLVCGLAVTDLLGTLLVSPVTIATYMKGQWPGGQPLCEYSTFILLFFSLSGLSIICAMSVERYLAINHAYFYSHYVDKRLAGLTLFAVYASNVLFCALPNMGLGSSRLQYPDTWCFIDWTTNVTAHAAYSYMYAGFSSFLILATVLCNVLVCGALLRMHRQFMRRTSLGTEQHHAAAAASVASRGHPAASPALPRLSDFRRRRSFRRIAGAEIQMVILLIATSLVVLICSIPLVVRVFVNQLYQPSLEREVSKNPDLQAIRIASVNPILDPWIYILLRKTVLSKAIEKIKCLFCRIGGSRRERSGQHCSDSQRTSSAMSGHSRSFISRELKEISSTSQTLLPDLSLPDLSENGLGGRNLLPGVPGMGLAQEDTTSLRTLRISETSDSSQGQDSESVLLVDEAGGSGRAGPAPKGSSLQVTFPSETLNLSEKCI

As for `COCCNC(=O)c1ccc2nn(C[C@@H]3CCN(C(=O)c4ccc(S(F)(F)(F)(F)F)cc4)C3)cc2c1C` [Example 219, N-(2-methoxyethyl)-4-methyl-2-({(3R)-1-[4-(pentafluoro-λ^6-sulphanyl)benzoyl]-pyrrolidin-3-yl}methyl)-2H-indazol-5-carboxamide], in test [1], the 50% inhibitory concentration (IC50) (usually the midpoint of a concentration-inhibition curve) was determined as 273 nM. In addition, the “Selectivity hEP2/hEP4” value in test [2] is “xx (xx: 10-100)”. The “Selectivity hEP2/hDP” value on human PGD receptor was “xx (xx: 10-100)”.

As to `Cc1c(C(=O)NCCC#N)ccc2nn(CC3CCN(C(=O)c4ccc(Oc5ccc(C(F)(F)F)cc5)cc4)CC3)cc12` [Example 246, N-(2-cyanoethyl)-4-methyl-2-[(1-{4-[4-(trifluoromethyl)phenoxy]benzoyl}piperidin-4-yl)methyl]-2H-indazol-5-carboxamide], the IC50 in test [1] is 9.23 nM. In addition, the “Selectivity hEP2/hEP4” value in test [2] was “xxx (xxx > 100)”. Also, the “Selectivity hEP2/hDP” value on human PGD receptor is “xxx (xxx > 100)”.

Regarding `COCCNC(=O)c1ccc2nn(CC3CN(C(=O)c4ccc(C5CC5)cc4)C3)cc2c1C` [Example 124, 2-{[1-(4-cyclopropylbenzoyl)azetidin-3-yl]methyl}-N-(2-methoxyethyl)-4-methyl-2H-indazol-5-carboxamide], in test [1], the IC50 was determined as 7.99 nM. For the same compound, the “Selectivity hEP2/hEP4” value in test [2] is “xxx (xxx > 100)”. Also, the “Selectivity hEP2/hDP” value on human PGD receptor was “xxx (xxx > 100)”.

Consider `COCCNC(=O)c1ccc2nn(CC3CCN(C(=O)c4ccc(-c5ccc(C(F)(F)F)nc5)cc4)CC3)cc2c1C` [Example 374, N-(2-methoxyethyl)-4-methyl-2-[(1-{4-[6-(trifluoromethyl)pyridin-3-yl]-benzoyl}piperidin-4-yl)methyl]-2H-indazol-5-carboxamide], for which the IC50 in test [1] was found to be 6.58 nM. Besides, in test [2], the “Selectivity hEP2/hEP4” value is recorded as “xxx (xxx > 100)”. In addition, at human PGD receptor, the “Selectivity hEP2/hDP” value was “xxx (xxx > 100)”.

With `Cc1c(C(=O)NCCSC(F)(F)F)ccc2nn(C[C@@H]3CCN(C(=O)c4ccc(OC(F)(F)F)cc4)C3)cc12` [Example 221, 4-methyl-2-({(R)-1-[4-(trifluoromethoxy)benzoyl]pyrrolidin-3-yl}methyl)-N-{2-[(trifluoromethyl)sulphanyl]ethyl}-2H-indazol-5-carboxamide], the IC50 in test [1] came to 235 nM. In addition, the “Selectivity hEP2/hEP4” value in test [2] is “xx (xx: 10-100)”. The “Selectivity hEP2/hDP” value on human PGD receptor is “xx (xx: 10-100)”.

As to `Cc1cc2nn(CC3CCN(C(=O)c4ccc(OC(F)(F)F)cc4)CC3)cc2cc1C(=O)NCCN1CCOCC1` [Example 75, 6-methyl-N-(2-morpholinoethyl)-2-({1-[4-(trifluorometh-oxy)benzoyl]piperidin-4-yl}methyl)-2H-indazol-5-carboxamide], the IC50 in test [1] worked out at 67 nM. In test [2], the “Selectivity hEP2/hEP4” value is “xxx (xxx > 100)”. Also, the “Selectivity hEP2/hDP” value at human PGD receptor is on record as “xxx (xxx > 100)”.

As for `Cc1c(C(=O)NCC(C)(C)C)ccc2nn(CC3CCN(C(=O)c4ccc(Oc5ccc(C(F)(F)F)cc5)cc4)CC3)cc12` [Example 405, 4-methyl-N-neopentyl-2-[(1-{4-[4-(trifluoromethyl)phenoxy]benzoyl}piperidin-4-yl)methyl]-2H-indazol-5-carboxamide], the IC50 in test [1] worked out at 2140 nM. The “Selectivity hEP2/hEP4” value in test [2] was “x (x: 1-10)”. For the same compound, the “Selectivity hEP2/hDP” value at human PGD receptor is on record as “x (x: 1-10)”.

On to `COCCNC(=O)c1ccc2nn(CC3CCN(C(=O)c4ccc(-c5ccc(C(C)(C)O)cc5)cc4)CC3)cc2c1C` [Example 388, 2-[(1-{[4′-(1-hydroxy-1-methylethyl)biphenyl-4-yl]carbonyl}piperidin-4-yl)-methyl]-N-(2-methoxyethyl)-4-methyl-2H-indazol-5-carboxamide], for which the IC50 in test [1] came to 20.5 nM. Besides, the “Selectivity hEP2/hEP4” value in test [2] is reported as “xxx (xxx > 100)”. Moreover, the “Selectivity hEP2/hDP” value at human PGD receptor is given as “xxx (xxx > 100)”.

With `Cc1c(C(=O)NCC#N)ccc2nn(CC3CCN(C(=O)c4ccc(Cl)cc4)CC3)cc12` [Example 401, 2-{[1-(4-chlorobenzoyl)piperidin-4-yl]methyl}-N-(cyanomethyl)-4-methyl-2H-indazol-5-carboxamide], the IC50 in test [1] was 155 nM. Also, the “Selectivity hEP2/hEP4” value in test [2] is “xxx (xxx > 100)”. Also, on human PGD receptor, the “Selectivity hEP2/hDP” value was “xxx (xxx > 100)”.

With `COCCNC(=O)c1ccc2nn(CC3CCN(C(=O)c4ccc(Cl)c(C(F)(F)F)c4)CC3)cc2c1OC` [Example 270, 2-({1-[4-chloro-3-(trifluoromethyl)benzoyl]piperidin-4-yl}methyl)-4-methoxy-N-(2-methoxyethyl)-2H-indazol-5-carboxamide], the IC50 in test [1] was determined as 53.1 nM. In addition, the “Selectivity hEP2/hEP4” value in test [2] is recorded as “xxx (xxx > 100)”. Further, the “Selectivity hEP2/hDP” value on human PGD receptor is “xxx (xxx > 100)”.

As for `COC(C)CNC(=O)c1cc2cn(CC3CN(C(=O)c4ccc(OC(F)(F)F)cc4)C3)nc2cc1C` (racemic) [Example 193, (+/−)-N-(2-methoxypropyl)-6-methyl-2-({1-[4-(trifluoromethoxy)benzoyl]-azetidin-3-yl}methyl)-2H-indazol-5-carboxamide], the IC50 in test [1] was found to be 145 nM. Also, the “Selectivity hEP2/hEP4” value in test [2] was “xxx (xxx > 100)”. The “Selectivity hEP2/hDP” value at human PGD receptor is “xxx (xxx > 100)”.

For the compound `Cc1c(C(=O)NCC(F)(F)F)ccc2nn(CC3CCN(C(=O)c4ccc(Oc5cccc(F)c5)cc4)CC3)cc12` [Example 307, 2-({1-[4-(3-fluorophenoxy)benzoyl]piperidin-4-yl}methyl)-4-methyl-N-(2,2,2-trifluoroethyl)-2H-indazol-5-carboxamide], the IC50 in test [1] was determined as 30.6 nM. In addition, in test [2], the “Selectivity hEP2/hEP4” value is given as “xxx (xxx > 100)”. Besides, at human PGD receptor, the “Selectivity hEP2/hDP” value is reported as “xxx (xxx > 100)”.

For the compound `COCCNC(=O)c1ccc2nn(CC3CCN(C(=O)c4cccc(C)c4)CC3)cc2c1C` [Example 27, N-(2-methoxyethyl)-4-methyl-2-{[1-(3-methylbenzoyl)-piperidin-4-yl]-methyl}-2H-indazol-5-carboxamide], the IC50 in test [1] is 19.3 nM. Besides, the “Selectivity hEP2/hEP4” value in test [2] is reported as “xxx (xxx > 100)”. Also, the “Selectivity hEP2/hDP” value at human PGD receptor was “xxx (xxx > 100)”.
